# In US20030017567A1, “Biological sample processing methods and compositions that include surfactants” (3M Innovative Properties Company, priority 2001, published 2003):
# Marks after values point to notes of the source that are not given here.
# How the values were obtained:
# [1] = biological target: T1, AMPLITAQ DNA polymerase (Taq polymerase) (Thermus aquaticus, UniProt P19821); experiment: PCR amplification of PERV protease fragment (327 bp) in presence of dye/surfactant; product on agarose gel or quantitated with Agilent 2100 Bioanalyzer; assay type: biochemical; conditions: for effect of dye on PCR (Example 6): dye at typical concentrations of 0.1 or 0.2 mg/mL, without surfactant, agarose gel
# T1 construct: purchased Applied Biosystems, Foster City, Calif
# Procedure: Typically, a fresh stock solution of 5 milligrams (mg) of a water-insoluble near-infrared dye (NIR dye) was dissolved in 50 microliters (μL) of dimethylsulfoxide (DMSO) and brought up in water to a final volume of 1 milliliter (mL). This was then diluted out to various concentrations of dye. The diluted dye (typically 0.2 mg/mL) was then added to a surfactant solution (typically 4 wt-%) to form a complex. The complex was added to a PCR reaction.
# PCR reactions were set up for a conserved sequence (327 bp) in the protease region of the genome of porcine endogenous retrovirus using a plasmid containing the PERV protease fragment, a forward primer and a reverse primer designed using a primer express program from Applied Biosystems, and AMPLITAQ DNA polymerase cocktail (commercially available from Applied Biosystems, Foster City, Calif.) and cycled in a thermocycler (9700, Applied Biosystems). The PCR reactions were typically carried out in 25-μL volumes. The NIR dye/surfactant mixture was added to the PCR cocktail to give the desired concentration of dye and surfactant in a total volume of 25 μL. A typical PCR cocktail contains 10x buffer, 2.5 μL; dNTPs, 2.0 μL (200 μM of each); forward primer, 0.5 μL (200 nM); reverse primer, 0.5 μL (200 nM); template DNA, 1.0 (1 ng/μL); Amplitaq, 0.25 μL (1.25 units); sterile water, 18.25 μL.
# The products of PCR reactions were run on 1% agarose gel containing ethidium bromide and visualized using an ALPHA IMAGER (Alpha Innotech Corp., San Leandro, Calif.). […] However, a higher concentration of dye (0.1 mg/mL) for effective heating was needed. Thus, for all further PCR experiments, a dye concentration of 0.1 mg/mL or higher was used. […] Taq polymerase was tested from different manufacturers (Promega Corp., Madison, Wis.; Roche Biochemicals, Indianapolis, Ind.; Eppendorf, Scientific Inc., Westbury, N.Y.; Sigma, St. Louis, Mo.) and all the Taq polymerases were inhibited by 785 WS and SDA 8080.
# In order to find out the optimum concentration of surfactant for PCR with NIR dye (785 WS and SDA 8080), the surfactant concentration in PCR reaction was varied from 0.1 wt-% to 4 wt-%. The PCR product formed was quantitated using DNA 7500 Labchip kit in Agilent 2100 Bioanalyzer (Agilent Inc, Paloalto, Calif.). The results shown in Table 3 indicate that increasing the concentration of surfactant relative to dye assists in the formation of PCR product.
# A variety of dyes (NIR dyes such as IR782, IR768, SDA 2141, SDA8327, IR 830 WS, fluorescent dyes like oligreen and visible dyes like dichlorophenol, indophenol, saffranin, crystal violet, and commercially available food coloring) at typical concentrations of 0.1 or 0.2 mg/mL were allowed to interact with 4 wt-% PLURONIC F127 and each mixture was added to the PCR cocktail. The reaction was set up to amplify PERV protease fragment as described in Example 2 and the products of the reaction were analyzed by agarose gel electrophoresis.
# [2] = Laser stability / photobleaching of dye solution on repeated laser exposure; assay type: physicochemical; conditions: for Laser Stability: 25 exposures
# Procedure: An 813-nm diode laser source at 1.2W (1.9A) (Opto Power Corp., Tucson, Ariz. ) was used to heat a 10μL volume of near-IR dye at a concentration (0.1 mg/mL for 785 WS, 0.2 mg/iL for SDA 8080) to yield a 35° C. rise in temperature. The laser was manually turned on long enough for the temperature in a 10-μL well to increase by 35° C. (1-3 seconds) and was manually turned off when that level was attained. The temperature data was obtained using a thermocouple in the well, and the transmittance data was obtained via a power meter whose signals were digitized and graphically interpreted.
# In another experiment, the 10 μL well was used to see if the dye/surfactant mixture could withstand laser cycling over a period of 30 cycles. The laser power was systematically varied from 60° C. to 94° C., 30 times.
# Unlike in Example 8, some dyes and dye/surfactant complexes undergo photodegradation when exposed to laser beam. […] Specifically, in the case of 785 WS/BRIJ-97, the addition of ascorbic acid (typically 5 mg/mL) helped reduce the amount of photobleaching from 100% to 20% after 30 cycles. In some circumstances, rapid/controlled photodegradation may be desired. […] This would allow DNA tags (fluorescent or vis/IR) to be monitored at the end of the PCR reaction.
# Vitamin E-TPGS has both surfactant as well as antioxidant properties.
# [3] = Thermal degradation of dye: absorbance at beginning and end of thermal cycling; assay type: physicochemical
# Description: The dyes SDA 8080 and 785 WS were mixed with a variety of surfactants such as PLURONIC F-127, TWEEN-20, TRITON X-100, NP-40, BRIJ-97 and cycled in a thermocycler (9700, Applied Biosystems). Absorbance readings were taken at the beginning and end of thermal cycling using HP Chem Station (HP 8453, Agilent Technologies, Palo Alto, Calif.) at 785 nm for the 785 WS dye and 1040 nm for the SDA 8080 dye. […] Thus, the surfactant helps to protect thermal degradation of the dye.
# [4] = 785 WS 0.1 mg/mL, surfactant 0.1 wt %
# [5] = 785 WS 0.1 mg/mL, surfactant 0.5 wt %
# [6] = 785 WS 0.1 mg/mL, surfactant 1 wt %
# [7] = 785 WS 0.1 mg/mL, surfactant 2 wt %
# [8] = 785 WS 0.1 mg/mL, surfactant 4 wt %
# [9] = SDA 8080 0.2 mg/mL, surfactant 0.1 wt %
# [10] = SDA 8080 0.2 mg/mL, surfactant 0.5 wt %
# [11] = SDA 8080 0.2 mg/mL, surfactant 1 wt %
# [12] = SDA 8080 0.2 mg/mL, surfactant 2 wt %
# [13] = SDA 8080 0.2 mg/mL, surfactant 4 wt %
# [14] = 785 WS (0.1 mg/mL), surfactant 20 wt %, * can be made laser stable after addition of antioxidant
# [15] = SDA 8080 (0.2 mg/mL), surfactant 20 wt %
# [16] = 785 WS (0.1 mg/mL), surfactant 0.5 wt %, absorbance at 785 nm
# [17] = 785 WS (0.1 mg/mL), surfactant 2 wt %, absorbance at 785 nm
# [18] = 785 WS (0.1 mg/mL), surfactant 4 wt %, absorbance at 785 nm
# [19] = SDA 8080 (0.2 mg/mL), surfactant 0.5 wt %, absorbance at 1040 nm
# [20] = SDA 8080 (0.2 mg/mL), surfactant 2 wt %, absorbance at 1040 nm
# [21] = SDA 8080 (0.2 mg/mL), surfactant 4 wt %, absorbance at 1040 nm
# [22] = surfactant 4 wt %, 785 WS 0 mg/mL (no dye), data from a different experiment under identical PCR conditions
# [23] = surfactant 4 wt %, SDA 8080 0 mg/mL (no dye), data from a different experiment under identical PCR conditions
# [24] = 785 WS (0.1 mg/mL), surfactant 0.1 wt %, absorbance at 785 nm
# [25] = SDA 8080 (0.2 mg/mL), surfactant 0.1 wt %, absorbance at 1040 nm
# T1 sequence (P19821 whole entry, the tested form may be a part): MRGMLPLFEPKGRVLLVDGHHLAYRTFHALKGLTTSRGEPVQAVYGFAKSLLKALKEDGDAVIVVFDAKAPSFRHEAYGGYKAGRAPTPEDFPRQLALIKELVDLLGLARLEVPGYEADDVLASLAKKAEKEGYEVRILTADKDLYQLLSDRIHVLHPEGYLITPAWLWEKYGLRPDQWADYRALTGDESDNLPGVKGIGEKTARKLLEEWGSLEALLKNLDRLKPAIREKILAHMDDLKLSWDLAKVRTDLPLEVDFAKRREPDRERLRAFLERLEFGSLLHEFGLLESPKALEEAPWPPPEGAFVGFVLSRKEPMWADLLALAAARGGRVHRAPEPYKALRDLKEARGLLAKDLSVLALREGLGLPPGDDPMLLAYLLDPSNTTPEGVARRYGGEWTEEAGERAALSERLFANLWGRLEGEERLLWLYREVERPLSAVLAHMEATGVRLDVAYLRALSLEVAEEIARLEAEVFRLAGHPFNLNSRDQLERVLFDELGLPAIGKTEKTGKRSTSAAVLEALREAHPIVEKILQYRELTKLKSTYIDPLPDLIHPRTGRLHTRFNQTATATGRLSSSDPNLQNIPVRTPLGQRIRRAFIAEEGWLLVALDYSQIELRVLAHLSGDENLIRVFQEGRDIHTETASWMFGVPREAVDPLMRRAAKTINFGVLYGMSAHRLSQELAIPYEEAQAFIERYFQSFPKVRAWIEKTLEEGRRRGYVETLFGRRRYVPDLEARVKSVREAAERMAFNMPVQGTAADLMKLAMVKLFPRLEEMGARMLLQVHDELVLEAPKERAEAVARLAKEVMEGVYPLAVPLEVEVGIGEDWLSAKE
Molecule,"PCR Product [1, 4] [ng/µL]","PCR Product [1, 5] [ng/µL]","PCR Product [1, 6] [ng/µL]","PCR Product [1, 7] [ng/µL]","PCR Product [1, 8] [ng/µL]","PCR Product [1, 10] [ng/µL]","PCR Product [1, 11] [ng/µL]","PCR Product [1, 12] [ng/µL]","PCR Product [1, 13] [ng/µL]","Thermal Degradation [3, 18] [%]","Thermal Degradation [3, 21] [%]",effect of dye on PCR (Example 6) [1],further results
Polyoxyethylene (10) oleyl ether [BRIJ 97],0,0,0,13.8,21.9,19.3,23.5,25.5,22.6,96.0,6.0,–,"PCR Product [1, 9]: 18.7 ng/µL; Laser Stability [2, 14]: −* (greater than 20% degradation in dye absorbance over a period of 25 exposures); Laser Stability [2, 15]: + (less than a 20% degradation in dye absorbance over a period of 25 exposures); Thermal Degradation ([3]; 785 WS (0.1 mg/mL), surfactant 0.01 wt %, absorbance at 785 nm): 79.0%; Thermal Degradation [3, 16]: 95.0%; Thermal Degradation ([3]; 785 WS (0.1 mg/mL), surfactant 1 wt %, absorbance at 785 nm): 94.5%; Thermal Degradation [3, 17]: 94.5%; Thermal Degradation ([3]; SDA 8080 (0.2 mg/mL), surfactant 0.01 wt %, absorbance at 1040 nm): 86.2%; Thermal Degradation [3, 19]: 67.7%; Thermal Degradation ([3]; SDA 8080 (0.2 mg/mL), surfactant 1 wt %, absorbance at 1040 nm): 50.0%; Thermal Degradation [3, 20]: 29.4%"
Cc1cc2nc3cc(C)c(N)cc3[n+](-c3ccccc3)c2cc1N.[Cl-] [saffranin],–,–,–,–,–,–,–,–,–,–,–,inhibited PCR,–
Nonyl phenoxy poly (ethyleneoxy) ethanol [NP-40],0,0,0,0.3,3.8,23.3,23.7,17.2,18,27.4,48.8,–,"PCR Product ([1]; SDA 8080 0.1 mg/mL, surfactant 0.1 wt %): 0 ng/µL; PCR Product [1, 22]: 24.2* ng/μL; PCR Product [1, 23]: 24.2* ng/μL; Thermal Degradation [3, 24]: 20.2%; Thermal Degradation [3, 25]: 82.1%"
d-Alpha tocopheryl polyethylene glycol 1000 [Vitamin E TPGS],–,–,–,–,–,–,–,–,–,5.3,92.3,–,"Laser Stability ([2]; 785 WS (0.1 mg/mL), surfactant 4 wt %, * can be made laser stable after addition of antioxidant): + (less than a 20% degradation in dye absorbance over a period of 25 exposures); light stability ([2]; Vitamin E-TPGS 4 wt-% added to 785 WS 0.1 mg/mL, after 30 cycles of laser exposure): significantly increased; Thermal Degradation [3, 16]: 6.5%; Thermal Degradation [3, 17]: 4.0%; Thermal Degradation [3, 19]: 89.5%; Thermal Degradation [3, 20]: 88.9%"
O=C1O[C@H]([C@@H](O)CO)C(O)=C1O [ascorbic acid],–,–,–,–,–,–,–,–,–,–,–,–,effect of antioxidant on photobleaching of 785 WS ([2]; added to virtually any of the surfactants tested with 785 WS): reduced photobleaching significantly
dichlorophenol,–,–,–,–,–,–,–,–,–,–,–,inhibited PCR,–
Octyl phenoxy polyethoxyethanol [TRITON X-100],0,0.1,0.4,2.2,1.3,2.3,1.4,1.9,1.1,4.6,0.0,–,"PCR Product [1, 9]: 0 ng/µL; PCR Product [1, 22]: 23.8* ng/μL; PCR Product [1, 23]: 23.8* ng/μL; Laser Stability [2, 14]: −* (greater than 20% degradation in dye absorbance over a period of 25 exposures); Laser Stability [2, 15]: + (less than a 20% degradation in dye absorbance over a period of 25 exposures); Thermal Degradation [3, 24]: 24.8%; Thermal Degradation [3, 25]: 76.0%; Thermal Degradation ([3]; SDA 8080 (0.2 mg/mL), surfactant 20 wt %, absorbance at 1040 nm): 7.1%"
CN(C)c1ccc(C(=C2C=CC(=[N+](C)C)C=C2)c2ccc(N(C)C)cc2)cc1 [crystal violet],–,–,–,–,–,–,–,–,–,–,–,inhibited PCR,–
